In ChEMBL document CHEMBL4673226, “Development of 5-Aminopyrazole-4-carboxamide-based Bumped-Kinase Inhibitors for Cryptosporidiosis Therapy” (J Med Chem, 2019):
Converted amounts (≈) assume the structure as drawn. The source made the active and inactive calls. The calls are words filed in the database; no cut-off is given here.

Experiments:
[1] = Solubility in pH 2.0 solution
[2] = Clearance in mouse at 25 mg/kg, po; type: ADME, organism-based; conditions: in vivo
[3] = AUC in mouse at 25 mg/kg, po; type: ADME, organism-based; set-up: dose 25 mg/kg; conditions: in vivo
HepG2 = experiment: Toxicity in human HepG2 cells; type: cell-based
[4] = biological target: Proto-oncogene tyrosine-protein kinase Src (Homo sapiens, UniProt P12931); experiment: Inhibition of SRC (unknown origin); type: ADME
Sequence of Proto-oncogene tyrosine-protein kinase Src (P12931 2-536 limits assumed): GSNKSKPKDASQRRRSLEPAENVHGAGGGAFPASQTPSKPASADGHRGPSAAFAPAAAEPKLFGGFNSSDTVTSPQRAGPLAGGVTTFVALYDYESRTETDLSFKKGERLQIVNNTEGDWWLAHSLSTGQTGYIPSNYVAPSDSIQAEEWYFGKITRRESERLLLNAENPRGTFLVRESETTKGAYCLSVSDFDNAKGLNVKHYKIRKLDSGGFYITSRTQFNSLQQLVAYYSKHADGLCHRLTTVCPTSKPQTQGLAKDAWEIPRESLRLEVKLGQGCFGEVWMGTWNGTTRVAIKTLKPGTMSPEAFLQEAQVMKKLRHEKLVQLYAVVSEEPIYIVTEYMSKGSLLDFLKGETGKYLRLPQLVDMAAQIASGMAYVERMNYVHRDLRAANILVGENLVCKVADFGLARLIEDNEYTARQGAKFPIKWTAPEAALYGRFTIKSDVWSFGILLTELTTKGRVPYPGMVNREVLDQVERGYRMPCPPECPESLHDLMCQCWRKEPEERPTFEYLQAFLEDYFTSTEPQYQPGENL

[5] = Toxicity in human CRL-8155 cells; type: cell-based
[6] = Drug level in mouse fecus at 25 mg/kg, po; conditions: read-out: Drug uptake, in vivo
[7] = Inhibition of Cryptosporidium parvum CDPK1 assessed as reduction in ATP consumption using BioSyntide-2 substrate incubated for 90 mins by luciferase reporter gene assay
[8] = Solubility in pH 6.5 solution
Cryptosporidium parvum [9] = experiment: Antimicrobial activity against nano-luciferase-expressing Cryptosporidium parvum infected in IFN-gamma KO B6.129S7-Ifngtm1Ts/J mouse assessed as log reduction of infection at 60 mg/kg, po QD for 5 days beginning on day 6 post infection relative untreated control; conditions: time 5 day
Cryptosporidium parvum [10] = experiment: Antimicrobial activity against nano-luciferase-expressing Cryptosporidium parvum infected in IFN-gamma KO B6.129S7-Ifngtm1Ts/J mouse assessed as log reduction of infection at 10 mg/kg, po BID for 5 days beginning on day 6 post infection relative untreated control; type: functional, organism-based; conditions: time 5.0 day
Cryptosporidium parvum [11] = experiment: Antimicrobial activity against nano-luciferase-expressing Cryptosporidium parvum infected in IFN-gamma KO B6.129S7-Ifngtm1Ts/J mouse assessed as log reduction of infection at 20 mg/kg, po BID for 5 days beginning on day 6 post infection relative untreated control; type: functional, organism-based; conditions: time 5.0 day
[12] = Protein binding in human plasma by dialysis method
[13] = Protein binding in mouse plasma by dialysis method
Cryptosporidium parvum [14] = experiment: Antimicrobial activity against nano-luciferase-expressing Cryptosporidium parvum infected in IFN-gamma KO B6.129S7-Ifngtm1Ts/J mouse assessed as log reduction of infection at 25 mg/kg, po QD for 5 days beginning on day 6 post infection relative untreated control; type: functional; conditions: time 5 day
Cryptosporidium parvum [15] = experiment: Antimicrobial activity against nano-luciferase-expressing Cryptosporidium parvum infected in IFN-gamma KO B6.129S7-Ifngtm1Ts/J mouse assessed as log reduction of infection at 30 mg/kg, po BID for 5 days beginning on day 6 post infection relative untreated control; type: functional, organism-based; conditions: time 5.0 day
[16] = AUC in mouse at 10 mg/kg, po; type: ADME, organism-based; set-up: dose 10 mg/kg; conditions: in vivo
[17] = Clearance in mouse at 10 mg/kg, po; type: ADME, organism-based; conditions: in vivo
in vivo [18] = conditions: mouse, po, 25 mg/kg
[19] = Half life in mouse at 25 mg/kg, po; conditions: in vivo
[20] = biological target: Voltage-gated inwardly rectifying potassium channel KCNH2 (Homo sapiens, UniProt Q12809); experiment: Inhibition of human ERG by thallium flux assay
Sequence of Voltage-gated inwardly rectifying potassium channel KCNH2 (Q12809 whole entry): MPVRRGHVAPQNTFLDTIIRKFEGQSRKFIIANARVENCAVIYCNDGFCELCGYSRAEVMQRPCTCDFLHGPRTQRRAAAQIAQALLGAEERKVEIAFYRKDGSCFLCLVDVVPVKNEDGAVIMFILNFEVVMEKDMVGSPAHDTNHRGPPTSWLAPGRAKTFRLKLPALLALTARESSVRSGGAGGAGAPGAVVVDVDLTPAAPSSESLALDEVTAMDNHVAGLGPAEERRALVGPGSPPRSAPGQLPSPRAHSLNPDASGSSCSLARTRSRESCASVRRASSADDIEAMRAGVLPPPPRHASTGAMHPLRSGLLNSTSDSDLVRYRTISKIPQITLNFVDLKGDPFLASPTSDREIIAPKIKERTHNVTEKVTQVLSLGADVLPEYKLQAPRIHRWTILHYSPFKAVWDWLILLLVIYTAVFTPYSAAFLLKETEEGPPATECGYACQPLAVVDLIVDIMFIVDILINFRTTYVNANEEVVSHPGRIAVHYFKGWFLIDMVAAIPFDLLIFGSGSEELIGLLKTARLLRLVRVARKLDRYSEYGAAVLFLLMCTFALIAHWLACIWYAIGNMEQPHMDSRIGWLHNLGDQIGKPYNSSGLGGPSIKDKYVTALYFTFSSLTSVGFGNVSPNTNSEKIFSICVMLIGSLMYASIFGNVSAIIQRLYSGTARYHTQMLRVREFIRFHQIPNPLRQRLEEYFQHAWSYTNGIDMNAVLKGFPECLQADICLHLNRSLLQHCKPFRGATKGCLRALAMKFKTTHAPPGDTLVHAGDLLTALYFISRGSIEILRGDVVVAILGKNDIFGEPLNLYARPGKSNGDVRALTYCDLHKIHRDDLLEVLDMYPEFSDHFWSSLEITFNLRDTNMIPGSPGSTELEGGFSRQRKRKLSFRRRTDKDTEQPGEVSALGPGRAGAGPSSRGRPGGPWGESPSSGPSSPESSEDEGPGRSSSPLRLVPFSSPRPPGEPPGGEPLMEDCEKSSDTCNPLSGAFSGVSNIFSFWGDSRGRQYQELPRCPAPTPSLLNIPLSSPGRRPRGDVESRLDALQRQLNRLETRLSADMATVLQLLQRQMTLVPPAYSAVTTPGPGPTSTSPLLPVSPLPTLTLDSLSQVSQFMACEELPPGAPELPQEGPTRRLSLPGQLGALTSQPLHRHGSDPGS

Cryptosporidium parvum [21] = experiment: Antimicrobial activity against nano-luciferase-expressing Cryptosporidium parvum infected in human HCT8 cells incubated for 72 hrs by luciferase reporter gene assay; type: functional, organism-based; conditions: HCT-8, 72 h
in vivo [22] = conditions: mouse, po, 25 mg/kg; remark: listed apart in the source

Row | SMILES | solubility ([1]; buffer) | CL/F [2] | AUC [3] | Activity (HepG2) | IC50 [4] | Activity [5] | concentration [6] | IC50 [7] | solubility ([8]; buffer) | further results
1 | CCOc1ccc2cc(-c3nn(C(C)(C)CO)c(N)c3C(N)=O)cnc2c1 | > 50 µM | 1 mL/min | 50798.1 µmol·min/L | Non-Toxic | 4700 nM | Non-Toxic | 2.9 µM | 4.1 nM | > 50 µM | 
2 | CCOc1ccc2cc(-c3nn(C(C)(C)CO)c(N)c3C(N)=O)ccc2n1 | > 100 µM | 0.4 mL/min | 11412.6 µmol·min/L | Non-Toxic | > 10000 nM | Non-Toxic | 0.41 µM | 3.1 nM | > 100 µM | FC (Cryptosporidium parvum [9]): 3.15; Activity (Cryptosporidium parvum [10]): inactive; Activity (Cryptosporidium parvum [11]): inactive; PPB [12]: 84%; PPB [13]: 80%
3 | CCOc1ccc2cc(-c3nn(CC4CC4)c(N)c3C(N)=O)ccc2c1 |  | 0.5 mL/min | 2800.8 µmol·min/L | Non-Toxic | 10000 nM | Non-Toxic | 54 µM | 0.03 nM |  | log reduction (Cryptosporidium parvum [14]): 0.76; PPB [12]: 95%; PPB [13]: 97%
4 | C#CCOc1ccc2cc(-c3nn(C(C)(C)C)c(N)c3C(N)=O)ccc2c1 |  |  |  | Non-Toxic |  | Non-Toxic |  |  |  | 
5 | CCOc1ccc2cc(-c3nn(C(C)CCO)c(N)c3C(N)=O)ccc2c1 (stereo unspecified) | > 100 µM | 0.8 mL/min | 1738 µmol·min/L | Non-Toxic | 10000 nM | Non-Toxic |  | 2 nM | 56.7 µM (≈ 20.9 µg/mL) | Activity (Cryptosporidium parvum [15]): Active; FC (Cryptosporidium parvum [9]): 2.62; PPB [12]: 88%; PPB [13]: 71%
6 | CCOc1ccc2cc(-c3nn(CC(C)(C)CO)c(N)c3C(N)=O)ccc2n1 |  |  |  | Non-Toxic |  | Non-Toxic |  |  |  | AUC [16]: 140.2 µmol·min/L; CL/F [17]: 5.1 mL/min
7 | CC(CCO)n1nc(-c2ccc3nc(OC4CC4)ccc3c2)c(C(N)=O)c1N (stereo unspecified) |  | 0.7 mL/min | 1154.1 µmol·min/L | Non-Toxic | > 10000 nM | Non-Toxic |  | 5.9 nM |  | solubility ([1]; pH 2.0 solution): > 100 µM; Cmax (in vivo [18]): 8.5 µM; half-life [19]: 1.42 h; IC50 [20]: > 30000 nM; solubility ([8]; pH 6.5 solution): 98 µM (≈ 37.4 µg/mL); EC50 (Cryptosporidium parvum [21]): 600 nM; Tmax (in vivo [22]): 0.667 h; fraction unbound [13]: 0.23
8 | CC(CCO)n1nc(-c2ccc3cc(OC4CC4)ccc3c2)c(C(N)=O)c1N (stereo unspecified) | > 100 µM | 0.3 mL/min | 4332.8 µmol·min/L | Non-Toxic | > 10000 nM | Non-Toxic | 10.3 µM | 6 nM | > 100 µM | FC (Cryptosporidium parvum [9]): 4.78; PPB [12]: 95%; PPB [13]: 95%
9 | CC(C)(CO)n1nc(-c2cnc3cc(OC4CC4)ccc3c2)c(C(N)=O)c1N | 89 µM (≈ 33.9 µg/mL) |  |  | Non-Toxic | > 10000 nM | Non-Toxic |  | 1.9 nM | 44.2 µM (≈ 16.9 µg/mL) | 
10 | CC(C)(CO)Cn1nc(-c2ccc3nc(OC4CC4)ccc3c2)c(C(N)=O)c1N |  |  |  | Non-Toxic |  | Non-Toxic |  |  |  | 
11 | CC(C)(CO)n1nc(-c2ccc3cc(OC4CC4)ccc3c2)c(C(N)=O)c1N | 89 µM (≈ 33.9 µg/mL) | 0.3 mL/min | 41782 µmol·min/L | Non-Toxic | > 10000 nM | Non-Toxic | 3.5 µM | 6.9 nM | 92.9 µM (≈ 35.3 µg/mL) | FC (Cryptosporidium parvum [9]): 4.47; PPB [13]: 80%
12 | CC(C)(CO)Cn1nc(-c2cnc3cc(OC4CC4)ccc3c2)c(C(N)=O)c1N | > 100 µM |  |  | Non-Toxic | > 10000 nM | Non-Toxic |  | 0.1 nM | > 100 µM | 
13 | CC(C)(CCO)n1nc(-c2cnc3cc(OC4CC4)ccc3c2)c(C(N)=O)c1N | 88.8 µM (≈ 35.1 µg/mL) |  |  | Non-Toxic | > 10000 nM | Non-Toxic |  | 3 nM |  | 
14 | CCOc1ccc2cc(-c3nn(C(C)(C)CCO)c(N)c3C(N)=O)cnc2c1 | 87.9 µM (≈ 33.7 µg/mL) |  |  | Non-Toxic | 2500 nM | Non-Toxic |  | 5.7 nM | > 100 µM | 
15 | CCOc1ccc2cc(-c3nn(CC(C)(C)CO)c(N)c3C(N)=O)cnc2c1 |  |  |  | Non-Toxic | > 10000 nM | Non-Toxic |  |  | > 100 µM | 
16 | CCOc1ccc2cc(-c3nn(C(C)CCO)c(N)c3C(N)=O)cnc2c1 (stereo unspecified) | 78 µM (≈ 28.8 µg/mL) |  |  | Non-Toxic | 3500 nM | Non-Toxic | 1.1 µM |  | > 100 µM | AUC [16]: 339 µmol·min/L; CL/F [17]: 1.9 mL/min; FC (Cryptosporidium parvum [9]): 3.41; PPB [12]: 84%; PPB [13]: 86%
17 | CCOc1ccc2cc(-c3nn(CC(C)(C)CO)c(N)c3C(N)=O)ccc2c1 | > 100 µM | 2.1 mL/min | 621.1 µmol·min/L | Non-Toxic | 6300 nM | Non-Toxic | 7.6 µM | 6.6 nM | 20.6 µM (≈ 7.88 µg/mL) | FC (Cryptosporidium parvum [9]): -0.03; PPB [12]: 94%; PPB [13]: 92%
18 | CC(CCO)n1nc(-c2cnc3cc(OC4CC4)ccc3c2)c(C(N)=O)c1N (stereo unspecified) |  | 0.1 mL/min | 11769 µmol·min/L | Non-Toxic | > 10000 nM | Non-Toxic | 4.5 µM | 2 nM |  | solubility ([1]; pH 2.0 solution): > 100 µM; Cmax (in vivo [18]): 69.2 µM; half-life [19]: 2.05 h; IC50 [20]: > 30000 nM; solubility ([8]; pH 6.5 solution): > 100 µM; EC50 (Cryptosporidium parvum [21]): 430 nM; Tmax (in vivo [22]): 0.5 h; fraction unbound [12]: 0.49
19 | CCOc1ccc2cc(-c3nn(C(C)CCO)c(N)c3C(N)=O)ccc2n1 (stereo unspecified) |  |  |  | Non-Toxic |  | Non-Toxic |  |  |  | 
20 | CC(C)(CCO)n1nc(-c2ccc3cc(OC4CC4)ccc3c2)c(C(N)=O)c1N | > 100 µM | 1 mL/min | 483.2 µmol·min/L | Non-Toxic | > 10000 nM | Non-Toxic |  | 3.8 nM |  | 
21 | CCOc1ccc2cc(-c3nn(C(C)(C)CCO)c(N)c3C(N)=O)ccc2n1 |  |  |  | Non-Toxic |  | Non-Toxic |  |  |  | 
22 | CC(C)(CO)n1nc(-c2ccc3nc(OC4CC4)ccc3c2)c(C(N)=O)c1N |  |  |  | Non-Toxic |  | Non-Toxic |  |  |  | 
23 | CCOc1ccc2cc(-c3nn(C(C)(C)CO)c(N)c3C(N)=O)ccc2c1 | 18.8 µM (≈ 6.93 µg/mL) | 0.2 mL/min | 9365 µmol·min/L | Non-Toxic | > 10000 nM | Non-Toxic | 7.1 µM | 9 nM | 8 µM (≈ 2.95 µg/mL) | log reduction (Cryptosporidium parvum [14]): 0.81
24 | CC(C)(CCO)n1nc(-c2ccc3nc(OC4CC4)ccc3c2)c(C(N)=O)c1N | 96 µM (≈ 38 µg/mL) | 6.7 mL/min | 193.6 µmol·min/L | Non-Toxic | > 10000 nM | Non-Toxic |  | 2.3 nM | > 100 µM | 
